We go through 4 molecules from ChEMBL document CHEMBL3045199, “Synthesis of some (E)-6-[2-(furan-2-yl)ethenyl]-1,2,4-triazin-5-ones and their biological evaluation as antitumor agents” (2013).

SMILES strings stand for the structures.

Holding throughout (assay type): functional
Experiment [1] concerns RXF 393. Put plainly: Cytotoxicity against Homo sapiens (human) RXF393 cells assessed as growth inhibition at 10 uM after 24 hr. The note with it: RXF 393, 24 h, read-out: GI.
In experiment [2] the test system is IGROV-1. As to the kind of experiment: Cytotoxicity against Homo sapiens (human) IGROV1 cells assessed as growth inhibition at 10 uM after 24 hr. The note with it: IGROV-1, 24 h, read-out: GI.
In experiment [3] the test system is SK-MEL-2. As to the kind of experiment: Cytotoxicity against Homo sapiens (human) SK-MEL-2 cells assessed as growth inhibition at 10 uM after 24 hr. The note with it: SK-MEL-2, 24 h, read-out: GI.
Experiment [4] deals with T47D. As to the kind of experiment: Cytotoxicity against Homo sapiens (human) T47D cells assessed as growth inhibition at 10 uM after 24 hr. The note with it: read-out: GI.
For experiment [5], the system named is MDA-MB-468. Put plainly: Cytotoxicity against Homo sapiens (human) MDA-MB-468 cells assessed as growth inhibition at 10 uM after 24 hr. Conditions: MDA-MB-468, 24 h, read-out: GI.
In experiment [6] the test system is MCF7. Put plainly: Cytotoxicity against Homo sapiens (human) MCF7 cells assessed as growth inhibition at 10 uM after 24 hr. The note with it: MCF7, 24 h, read-out: GI.
Experiment [7] has as its system UO-31. As to the kind of experiment: Cytotoxicity against Homo sapiens (human) UO31 cells assessed as growth inhibition at 10 uM after 24 hr. Conditions: UO-31, 24 h, read-out: GI.
The subject of experiment [8] is HL-60(TB). Put plainly: Cytotoxicity against Homo sapiens (human) HL-60(TB) cells assessed as growth inhibition at 10 uM after 24 hr. Conditions: HL-60, 24 h, read-out: GI.
Experiment [9] relates to OVCAR-8. As to the kind of experiment: Cytotoxicity against Homo sapiens (human) OVCAR8 cells assessed as growth inhibition at 10 uM after 24 hr. Conditions: OVCAR-8, 24 h, read-out: GI.

With `O=C(CSc1nc(=O)c(/C=C/c2ccco2)n[nH]1)c1ccc(Cl)cc1`, the inhibition of growth at 10 µM came to 62.5% in experiment [1]; 80.4% in [2]; 42.3% in [3]; 38.3% in experiment [4]; 57.3% in experiment [5]; 80.8% in [6]. The inhibition of growth at 10 µM in experiment [7] worked out at 33.3%.

As to `O=C1CC(=O)N(c2nc(=O)c(/C=C/c3ccco3)n[nH]2)N1`, the inhibition of growth at 10 µM in experiment [8] stood at 54.3%.

For `Nn1c(=S)[nH]nc(/C=C/c2ccco2)c1=O`, the inhibition of growth at 10 µM in [9] came to 59.1%; in experiment [2], 77%; in [3], 70.7%; in experiment [6], 72.7%.

As for `O=c1c(/C=C/c2ccco2)n[nH]c(=S)n1/N=C/c1ccc([N+](=O)[O-])cc1`, the inhibition of growth at 10 µM was determined as 47.8% in experiment [9], 75.6% in experiment [2], 70.3% in [3] and 73.1% in [6].
